Laboratory results: patent US9062048B2, “Cyclohexyl-azetidinyl antagonists of CCR2” (Janssen Pharmaceutica NV, priority 2010, dated 2015)

target: CCR2 (Homo sapiens (Human), UniProt P41597); experiment: MCP-1 Receptor Binding Assay in THP-1 Cells; settings: 0.5 nM 125I labeled MCP-1, 2 hours at 30° C., read-out: Inhibition of MCP-1 Binding IC50 MCP1B;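 further: THP-1 is a human monocytic cell line, and nonspecific binding was defined with 1 µM unlabeled MCP-1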
Sequence (P41597 whole entry): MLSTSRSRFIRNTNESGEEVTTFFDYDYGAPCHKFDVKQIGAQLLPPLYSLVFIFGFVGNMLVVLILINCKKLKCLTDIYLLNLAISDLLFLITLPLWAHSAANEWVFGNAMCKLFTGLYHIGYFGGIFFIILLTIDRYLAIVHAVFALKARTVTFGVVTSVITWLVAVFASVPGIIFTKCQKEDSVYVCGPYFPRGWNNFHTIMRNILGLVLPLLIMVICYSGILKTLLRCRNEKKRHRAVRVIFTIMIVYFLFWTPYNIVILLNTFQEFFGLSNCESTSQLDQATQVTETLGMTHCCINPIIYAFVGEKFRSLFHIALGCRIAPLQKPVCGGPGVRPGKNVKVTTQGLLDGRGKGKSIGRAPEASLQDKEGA

Compared with CC(C)C(O)[C@H]1CC[C@@H](N2CC(NC(=O)CNc3cnnc4ccc(C(F)(F)F)cc34)C2)CC1 (stereo partly drawn) [Example 157, N-(1-((1R,4s)-4-((S)-1-hydroxy-2-methylpropyl)cyclohexyl)azetidin-3-yl)-2-((6-(trifluoromethyl)cinnolin-4-yl)amino)acetamide], CC(C)[C@H](O)[C@H]1CC[C@H](N2CC(NC(=O)CNc3nncc4ccc(C(F)(F)F)cc34)C2)CC1 (racemic) [Example 160, N-(1-((1S,4r)-4-((S)-1-hydroxy-2-methylpropyl)cyclohexyl)azetidin-3-yl)-2-((7-(trifluoromethyl)phthalazin-1-yl)amino)acetamide] is 24-fold lower in IC50: 0.53 µM for the first, 0.022 µM for the second.

Compared with O=C(CNc1ncnc2ccc(C(F)(F)F)cc12)NC1CN([C@H]2CC[C@@H](N3CCS(=O)(=O)CC3)CC2)C1 [Example 134, N-(1-((1s,4s)-4-(1,1-dioxidothiomorpholino)cyclohexyl)azetidin-3-yl)-2-((6-(trifluoromethyl)quinazolin-4-yl)amino)acetamide], O=C(CNc1ncnc2ccc(C(F)(F)F)cc12)NC1CN([C@H]2CC[C@@H](N3CCOCC3)CC2)C1 [Example 132, N-(1-((1s,4s)-4-morpholinocyclohexyl)azetidin-3-yl)-2-((6-(trifluoromethyl)quinazolin-4-yl)amino)acetamide] is 2.6-fold higher in IC50: 0.072 µM for the first, 0.19 µM for the second.

O=C(CNc1ncnc2ccc(C(F)(F)F)cc12)NC1CN([C@H]2CC[C@@H](C3CNC(=O)O3)CC2)C1 (stereo partly drawn) [Example 22, N-(1-((1S,4s)-4-(2-oxooxazolidin-5-yl)cyclohexyl)azetidin-3-yl)-2-((6-(trifluoromethyl)quinazolin-4-yl)amino)acetamide] and O=C(CNc1ncnc2ccc(C(F)(F)F)cc12)NC1CN([C@H]2CC[C@@H](C3CCCO3)CC2)C1 (stereo partly shown) [Example 15] are within 1.5-fold of each other in IC50: 0.064 µM for the first, 0.049 µM for the second.

Compared with CC[C@@H](O)[C@H]1CC[C@@H](N2CC(NC(=O)CNc3nccc4ncc(C(F)(F)F)cc34)C2)CC1 (stereo in doubt) [Example 150, N-(1-((1R,4s)-4-((S)-1-hydroxypropyl)cyclohexyl)azetidin-3-yl)-2-((3-(trifluoromethyl)-1,6-naphthyridin-5-yl)amino)acetamide], CC(C)[C@@H](O)[C@H]1CC[C@@H](N2CC(NC(=O)CNc3nccc4ncc(C(F)(F)F)cc34)C2)CC1 (stereo in doubt) [Example 155, N-(1-((1R,4s)-4-((S)-1-hydroxy-2-methylpropyl)cyclohexyl)azetidin-3-yl)-2-((3-(trifluoromethyl)-1,6-naphthyridin-5-yl)amino)acetamide] is higher in IC50: 0.43 µM for the first, over 25 µM for the second.

Compared with O=C(CNc1ncnc2ccc(C(F)(F)F)cc12)NC1CN([C@H]2CC[C@@H](N3C(=O)CCC3=O)CC2)C1 [Example 57, N-(1-((1s,4s)-4-(2,5-dioxopyrrolidin-1-yl)cyclohexyl)azetidin-3-yl)-2-((6-(trifluoromethyl)quinazolin-4-yl)amino)acetamide], O=C(CNc1ncnc2ccc(C(F)(F)F)cc12)NC1CN([C@H]2CC[C@@H](N3CCCCC3=O)CC2)C1 [Example 56, N-(1-((1s,4s)-4-(2-oxopiperidin-1-yl)cyclohexyl)azetidin-3-yl)-2-((6-(trifluoromethyl)quinazolin-4-yl)amino)acetamide] is 2-fold higher in IC50: 0.28 µM for the first, 0.55 µM for the second.

Going from CCN(C(C)=O)[C@H]1CC[C@@H](N2CC(NC(=O)CNc3ncnc4ccc(C(F)(F)F)cc34)C2)CC1 [Example 50] to CC(=O)N(C)[C@H]1CC[C@@H](N2CC(NC(=O)CNc3ncnc4ccc(C(F)(F)F)cc34)C2)CC1 [Example 44], the IC50 falls from 0.81 µM to 0.52 µM (1.6-fold).

Compared with CN1C(=O)CCC1[C@H]1CC[C@@H](N2CC(NC(=O)CNc3ncnc4ccc(C(F)(F)F)cc34)C2)CC1 (stereo partly drawn) [Example 39, N-(1-((1S,4s)-4-(1-methyl-5-oxopyrrolidin-2-yl)cyclohexyl)azetidin-3-yl)-2-((6-(trifluoromethyl)quinazolin-4-yl)amino)acetamide], O=C1CCC(N2CC(NC(=O)CNc3ncnc4ccc(C(F)(F)F)cc34)C2)CC1 [Example 103, N-(1-(4-oxocyclohexyl)azetidin-3-yl)-2-((6-(trifluoromethyl)quinazolin-4-yl)amino)acetamide] is 2.3-fold higher in IC50: 0.231 µM for the first, 0.53 µM for the second. The first is the more potent here.

Going from O=C(CNc1ncnc2ccc(C(F)(F)F)cc12)NC1CN([C@H]2CC[C@@H](C(=O)N3CCCC3)CC2)C1 [Example 130, N-(1-((1s,4s)-4-(pyrrolidine-1-carbonyl)cyclohexyl)azetidin-3-yl)-2-((6-(trifluoromethyl)quinazolin-4-yl)amino)acetamide] to CC(C)[C@H](O)C1CCC(N2CC(NC(=O)CNc3ncnc4ccc(C(F)(F)F)cc34)C2)CC1 (single isomer, unassigned; (-)) [(−) 8], the IC50 falls from 1 µM to 0.01 µM (100-fold).

Going from O=C(CNc1ncnc2ccc(C(F)(F)F)cc12)N[C@H]1C[C@H](N2CCC(O)(c3cncs3)CC2)C1 [Example 162, N-((1r,3R)-3-(4-hydroxy-4-(thiazol-5-yl)piperidin-1-yl)cyclobutyl)-2-((6-(trifluoromethyl)quinazolin-4-yl)amino)acetamide] to CC(C)[C@]1(O)CC[C@H](N2CC(NC(=O)CNc3ncnc4ccc(C(F)(F)F)cc34)C2)CC1 [Example 37, N-(1-((1r,4r)-4-hydroxy-4-isopropylcyclohexyl)azetidin-3-yl)-2-((6-(trifluoromethyl)quinazolin-4-yl)amino)acetamide], the IC50 falls from 1.22 µM to 0.235 µM (5.2-fold). The second is the more potent here.

Compared with Nc1ccc(C2CCC(N3CC(NC(=O)CNc4ncnc5ccc(C(F)(F)F)cc45)C3)CC2)nc1 (stereo not shown) [Example 70, N-(1-(4-(5-aminopyridin-2-yl)cyclohexyl)azetidin-3-yl)-2-((6-(trifluoromethyl)quinazolin-4-yl)amino)acetamide], CCC(N)[C@H]1CC[C@@H](N2CC(NC(=O)CNc3ncnc4ccc(C(F)(F)F)cc34)C2)CC1 (stereo partly drawn) [Example 136, N-(1-((1R,4s)-4-((S)-1-aminopropyl)cyclohexyl)azetidin-3-yl)-2-((6-(trifluoromethyl)quinazolin-4-yl)amino)acetamide] is 4.4-fold higher in IC50: 0.009 µM for the first, 0.04 µM for the second.

CN(C(=O)OCc1ccccc1)[C@H]1CC[C@@H](N2CC(NC(=O)CNc3ncnc4ccc(C(F)(F)F)cc34)C2)CC1 [Example 42] and CCN(C(=O)OCc1ccccc1)[C@H]1CC[C@@H](N2CC(NC(=O)CNc3ncnc4ccc(C(F)(F)F)cc34)C2)CC1 [Example 47, Benzyl ethyl((1s,4s)-4-(3-(2-((6-(trifluoromethyl)quinazolin-4-yl)amino)acetamido)azetidin-1-yl)cyclohexyl)carbamate] are within 1.5-fold of each other in IC50: 0.21 µM for the first, 0.16 µM for the second.

Compared with CCC(NC(=O)C(F)(F)F)[C@H]1CC[C@@H](N2CC(NC(=O)CNc3ncnc4ccc(C(F)(F)F)cc34)C2)CC1 (stereo partly drawn) [Example 135, 2,2,2-trifluoro-N—((S)-1-((1s,4R)-4-(3-(2-((6-(trifluoromethyl)quinazolin-4-yl)amino)acetamido)azetidin-1-yl)cyclohexyl)propyl)acetamide], CC(C)[C@H](O)C1CCC(N2CC(NC(=O)CNc3ncnc4ccc(C(F)(F)F)cc34)C2)CC1 (single isomer, unassigned; (+)) [(+) 8] is 68-fold lower in IC50: 2.98 µM for the first, 0.044 µM for the second. The second is the more potent here.

Work on O=C(CNc1ccnc2ccc(C(F)(F)F)cc12)NC1CN([C@H]2CC[C@@](O)(c3nccs3)CC2)C1 [Example 27] yielded an IC50 of 0.017 µM.
